Several values for one entry are separate records, joined by “and”; a condition that tells them apart may be missing. Equal values may be shown once. Inconclusive results and toxic doses are left out.
System: P388 leukemia ip, CD2F1 mice, survival T/C
Assay: NCI In Vivo Anticancer Drug Screen. Data for tumor model P388 Leukemia (intraperitoneal) in CD2F1 (CDF1) mice
Conditions: endpoint: median survival time, higher = longer survival
Summary of the method: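 Mice carrying the transplanted tumor received test compound or vehicle. Survival was recorded in each group, and the value is the treated-group measurement divided by that of the vehicle-treated control group.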

[1] = dose: 50.0 mg/kg/injection, schedule: Q01DX009 (ip), vehicle: saline with Tween-80
[2] = dose: 100.0 mg/kg/injection, schedule: Q01DX009 (ip), vehicle: saline with Tween-80

## Oc1ccc(SCc2ccc(NCc3ccccc3)cc2)cc1
[1]
  T/C: 113 % of control and 117 % of control
[2]
  T/C: 119 % of control

## Nc1ccc(Br)cc1C(=O)c1ccccc1
dose: 12.5 mg/kg/injection, schedule: Q01DX009 (ip), vehicle: saline with Tween-80
  T/C: 97 % of control
dose: 25.0 mg/kg/injection, schedule: Q01DX009 (ip), vehicle: saline with Tween-80
  T/C: 94 % of control
[1]
  T/C: 94 % of control
dose: 50.0 mg/kg/injection, schedule: Q01DX009 (ip), vehicle: saline
  T/C: 87 % of control
dose: 100.0 mg/kg/injection, schedule: Q01DX009 (ip), vehicle: saline
  T/C: 89 % of control
dose: 200.0 mg/kg/injection, schedule: Q01DX009 (ip), vehicle: saline
  T/C: 116 % of control

## COc1ccc(/C=C/C(=O)C(CN(C)C)CN(C)C)cc1
dose: 1.56 mg/kg/injection, schedule: Q01DX005 (ip), vehicle: saline
  T/C: 109 % of control
dose: 3.12 mg/kg/injection, schedule: Q01DX005 (ip), vehicle: saline
  T/C: 96 % of control
dose: 6.25 mg/kg/injection, schedule: Q01DX005 (ip), vehicle: saline
  T/C: 106 % of control

## CN1CCCC(C(O)c2ccccc2)S1(=O)=O (centres undefined)
[1]
  T/C: 96 % of control
[2]
  T/C: 96 % of control
dose: 200.0 mg/kg/injection, schedule: Q01DX009 (ip), vehicle: saline with Tween-80
  T/C: 101 % of control

## ClC(Cl)C1OCCCO1
dose: 60.0 mg/kg/injection, schedule: Q01DX005 (ip), vehicle: saline
  T/C: 100 % of control
dose: 120.0 mg/kg/injection, schedule: Q01DX005 (ip), vehicle: saline
  T/C: 99 % of control
dose: 240.0 mg/kg/injection, schedule: Q01DX005 (ip), vehicle: saline
  T/C: 96 % of control

## O=[N+]([O-])c1ccc(Cl)nc1
dose: 22.0 mg/kg/injection, schedule: Q01DX009 (ip), vehicle: saline with Tween-80
  T/C: 103 % of control
dose: 33.0 mg/kg/injection, schedule: Q01DX009 (ip), vehicle: saline with Tween-80
  T/C: 97 % of control
[1]
  T/C: 91 % of control
dose: 75.0 mg/kg/injection, schedule: Q01DX009 (ip), vehicle: saline with Tween-80
  T/C: 99 % of control
dose: 100.0 mg/kg/injection, schedule: Q04DX003 (ip), vehicle: saline sonified
  T/C: 100 % of control
dose: 200.0 mg/kg/injection, schedule: Q04DX003 (ip), vehicle: saline sonified
  T/C: 95 % of control
dose: 400.0 mg/kg/injection, schedule: Q04DX003 (ip), vehicle: saline sonified
  T/C: 90 % of control

## CCOc1ccnc2c(C)c3c([nH]c4ccccc43)c(C)c12
dose: 100.0 mg/kg/injection, schedule: Q04DX002 (ip), vehicle: saline with Tween-80
  T/C: 98 % of control
dose: 200.0 mg/kg/injection, schedule: Q04DX002 (ip), vehicle: saline with Tween-80
  T/C: 94 % of control
dose: 400.0 mg/kg/injection, schedule: Q04DX002 (ip), vehicle: saline with Tween-80
  T/C: 96 % of control

## CSC(=S)N/N=C(/C)c1ccco1
[1]
  T/C: 105 % of control
[2]
  T/C: 95 % of control

## Cc1c(COC(=O)NC(C)C)c(COC(=O)NC(C)C)c2n1CS(=O)C2 (centres undefined)
dose: 12.5 mg/kg/injection, schedule: Q01DX005 (ip), vehicle: saline with Tween-80
  T/C: 104 % of control
dose: 25.0 mg/kg/injection, schedule: Q01DX005 (ip), vehicle: saline with Tween-80
  T/C: 111 % of control
dose: 50.0 mg/kg/injection, schedule: Q01DX005 (ip), vehicle: saline with Tween-80
  T/C: 118 % of control
dose: 200.0 mg/kg/injection, schedule: Q01DX005 (ip), vehicle: saline with Tween-80
  T/C: 176 % of control

## C=C1OC(CC(C)C)=C(C(=O)OC(C)(C)C)C1C (centres undefined)
dose: 100.0 mg/kg/injection, schedule: Q01DX001 (ip), vehicle: saline with Tween-80
  T/C: 99 % of control
dose: 200.0 mg/kg/injection, schedule: Q01DX001 (ip), vehicle: saline with Tween-80
  T/C: 99 % of control
dose: 400.0 mg/kg/injection, schedule: Q01DX001 (ip), vehicle: saline with Tween-80
  T/C: 100 % of control

## Cc1no[n+]([O-])c1C(N)=O
dose: 60.0 mg/kg/injection, schedule: Q01DX005 (ip), vehicle: saline with Tween-80
  T/C: 101 % of control
dose: 120.0 mg/kg/injection, schedule: Q01DX005 (ip), vehicle: saline with Tween-80
  T/C: 100 % of control
dose: 240.0 mg/kg/injection, schedule: Q01DX005 (ip), vehicle: saline with Tween-80
  T/C: 102 % of control
